Laboratory results from patent publication US20240391965A1, “STAPLED ANTIMICROBIAL PEPTIDES (STAMPS) AND USES THEREOF” (Lytica Therapeutics, Inc., priority 2021, published 2024).
Converted amounts (≈) assume the structure as drawn. Starred links: 1 amine or outer side, 2 acyl side, 3 side chain; linkers in the order of their positions; H or OH if unused. Positions of bridges follow the written chain, without caps; N, C: chain ends. Residues, ends and D or L forms follow the SMILES beside them. 2,2'Bipyridine(5,5'-diCH2) = c1cc(-c2ccc(C[*:2])cn2)ncc1C[*:1]; Biphenyl(4,4'-CH2)2 = c1cc(-c2ccc(C[*:2])cc2)ccc1C[*:1]; Naphthalene(2,6-diCH2) = c1cc2cc(C[*:2])ccc2cc1C[*:1]; mXylylene = c1cc(C[*:1])cc(C[*:2])c1; pXylylene = c1cc(C[*:2])ccc1C[*:1]; X1 = C(=CC[*:2])C[*:1]

Assay: 48 hours cytotoxicity assay (CellTiter-Glo), liver toxicity
Assay type: cell-based, human
Conditions: not given
Description: In some embodiments, a peptide provided herein has hepatic toxicity that is at least 10% (e.g., at least 15%, at least 20%, at least 25%, at least 30%, at least 35%, at least 40%, at least 45%, at least 50%, at least 55%, at least 60%, at least 65%, at least 65%, at least 70%, at least 75%, at least 80%, at least 85%, at least 90%, at least 95%, at least 99%) lower than the hepatic toxicity of the reference. The hepatic toxicity of a peptide can be measured in vitro using a human liver cells (e.g., HepG2) toxicity assay.
Cell culture: RPTEC were maintained in MEM media supplemented with growth factors. HEPG2 cell line was maintained in Eagle's Minimum Essential Medium (EMEM) supplemented with fetal bovine serum to a final concentration of 10%.
48 hours cytotoxicity assay: Cells were plated in a 96-well format, and after 4 hour incubation to allow attachment, serial dilutions of StAMPs from a 5 mg/mL water stock, or vehicle, were then added to the cells in a final volume of 100 μl. After incubating at 37° C. for 48 hours, 100 μl of CellTiter-Glo® reagent was added to the cells, and the plates were incubated 10 minutes at room temperature. Luminescence was then measured on a microplate reader.
Renal toxicity was measured after 90 minutes of incubation, while liver toxicity was measured after 48 hours of incubation with StAMPs. N/A=not tested.

| SMILES | IC50 |
| --- | --- |
| CC[C@H](C)[C@H](NC(=O)[C@H](CC(C)C)NC(=O)[C@H](CC(C)C)NC(=O)[C@H](CC(N)=O)NC(=O)[C@H](CCCCN)NC(=O)[C@@H](NC(=O)[C@H](CCCCN)NC(=O)[C@H](CCCCN)NC(=O)CNC(=O)[C@H](C)NC(=O)[C@@H]1CSCc2cccc(c2)CSC[C@H](NC(=O)CN)C(=O)N[C@@H](Cc2ccccc2)C(=O)N[C@@H](CO)C(=O)N[C@@H](CCCCN)C(=O)N1)[C@@H](C)CC)C(=O)N[C@@H](CO)C(=O)NCC(=O)N[C@@H](CC(C)C)C(=O)N[C@@H](CCCCN)C(=O)NCC(N)=O [compound 46] (H-GCFSKCAGKKIKNLLISGLKG-NH2; linker 2-6 via mXylylene; N-terminus assumed) | 201 µg/mL (≈ 88.7 µM) |
| CC[C@H](C)[C@H](NC(=O)[C@H](CC(C)C)NC(=O)[C@H](CC(C)C)NC(=O)[C@H](CC(N)=O)NC(=O)[C@H](CCCCN)NC(=O)[C@@H](NC(=O)[C@H](CCCCN)NC(=O)[C@H](CCCCN)NC(=O)CNC(=O)[C@H](C)NC(=O)[C@@H]1CSCc2ccc(cc2)CSC[C@H](NC(=O)CN)C(=O)N[C@@H](Cc2ccccc2)C(=O)N[C@@H](CO)C(=O)N[C@@H](CCCCN)C(=O)N1)[C@@H](C)CC)C(=O)N[C@@H](CO)C(=O)NCC(=O)N[C@@H](CC(C)C)C(=O)N[C@@H](CCCCN)C(=O)NCC(N)=O [compound 47] (H-GCFSKCAGKKIKNLLISGLKG-NH2; linker 2-6 via pXylylene; N-terminus assumed) | 402 µg/mL (≈ 177 µM) |
| CC[C@H](C)[C@H](NC(=O)[C@H](CC(C)C)NC(=O)[C@H](CC(C)C)NC(=O)[C@H](CC(N)=O)NC(=O)[C@H](CCCCN)NC(=O)[C@@H](NC(=O)[C@H](CCCCN)NC(=O)[C@H](CCCCN)NC(=O)CNC(=O)[C@H](C)NC(=O)[C@@H]1CSCC=CCSC[C@H](NC(=O)CN)C(=O)N[C@@H](Cc2ccccc2)C(=O)N[C@@H](CO)C(=O)N[C@@H](CCCCN)C(=O)N1)[C@@H](C)CC)C(=O)N[C@@H](CO)C(=O)NCC(=O)N[C@@H](CC(C)C)C(=O)N[C@@H](CCCCN)C(=O)NCC(N)=O [compound 48] (H-GCFSKCAGKKIKNLLISGLKG-NH2; linker 2-6 via X1; N-terminus assumed) | > 800 µg/mL |
| CC[C@H](C)[C@H](NC(=O)[C@H](CC(C)C)NC(=O)[C@H](CC(C)C)NC(=O)[C@H](CC(N)=O)NC(=O)[C@H](CCCCN)NC(=O)[C@@H](NC(=O)[C@H](CCCCN)NC(=O)[C@H](CCCCN)NC(=O)[C@@H]1CSCc2ccc(cc2)-c2ccc(cc2)CSC[C@H](N)C(=O)N[C@@H]([C@@H](C)CC)C(=O)N[C@@H](Cc2ccccc2)C(=O)N[C@@H](CO)C(=O)N[C@@H](CCCCN)C(=O)N[C@@H](CC(C)C)C(=O)N[C@@H](C)C(=O)N1)[C@@H](C)CC)C(=O)N[C@@H](CO)C(=O)NCC(=O)N[C@@H](CC(C)C)C(=O)N[C@@H](CCCCN)C(=O)NCC(N)=O [compound 51] (H-CIFSKLACKKIKNLLISGLKG-NH2; linker 1-8 via Biphenyl(4,4'-CH2)2; N-terminus assumed) | 102 µg/mL (≈ 41.5 µM) |
| CC[C@H](C)[C@H](NC(=O)CN)C(=O)N[C@@H](Cc1ccccc1)C(=O)N[C@H]1CSCc2ccc(cc2)-c2ccc(cc2)CSC[C@@H](C(=O)N[C@@H](CCCCN)C(=O)N[C@@H](CC(N)=O)C(=O)N[C@@H](CC(C)C)C(=O)N[C@@H](CC(C)C)C(=O)N[C@H](C(=O)N[C@@H](CO)C(=O)NCC(=O)N[C@@H](CC(C)C)C(=O)N[C@@H](CCCCN)C(=O)NCC(N)=O)[C@@H](C)CC)NC(=O)[C@H](CCCCN)NC(=O)[C@H](CCCCN)NC(=O)CNC(=O)[C@H](C)NC(=O)[C@H](CC(C)C)NC(=O)[C@H](CCCCN)NC1=O [compound 59] (H-GIFCKLAGKKCKNLLISGLKG-NH2; linker 4-11 via Biphenyl(4,4'-CH2)2; N-terminus assumed) | 23 µg/mL (≈ 9.71 µM) |
| CC[C@H](C)[C@H](NC(=O)CN)C(=O)N[C@@H](Cc1ccccc1)C(=O)N[C@@H](CO)C(=O)N[C@H]1CSCc2ccc(cc2)-c2ccc(cc2)CSC[C@@H](C(=O)N[C@@H](CC(N)=O)C(=O)N[C@@H](CC(C)C)C(=O)N[C@@H](CC(C)C)C(=O)N[C@H](C(=O)N[C@@H](CO)C(=O)NCC(=O)N[C@@H](CC(C)C)C(=O)N[C@@H](CCCCN)C(=O)NCC(N)=O)[C@@H](C)CC)NC(=O)[C@H]([C@@H](C)CC)NC(=O)[C@H](CCCCN)NC(=O)[C@H](CCCCN)NC(=O)CNC(=O)[C@H](C)NC(=O)[C@H](CC(C)C)NC1=O [compound 61] (H-GIFSCLAGKKICNLLISGLKG-NH2; linker 5-12 via Biphenyl(4,4'-CH2)2; N-terminus assumed) | > 200 µg/mL |
| CC[C@H](C)[C@H](NC(=O)CN)C(=O)N[C@@H](Cc1ccccc1)C(=O)N[C@@H](CO)C(=O)N[C@@H](CCCCN)C(=O)N[C@@H](CC(C)C)C(=O)N[C@@H](C)C(=O)N[C@H]1CSCc2ccc(cc2)-c2ccc(cc2)CSC[C@@H](C(=O)N[C@H](C(=O)N[C@@H](CO)C(=O)NCC(=O)N[C@@H](CC(C)C)C(=O)N[C@@H](CCCCN)C(=O)NCC(N)=O)[C@@H](C)CC)NC(=O)[C@H](CC(C)C)NC(=O)[C@H](CC(N)=O)NC(=O)[C@H](CCCCN)NC(=O)[C@H]([C@@H](C)CC)NC(=O)[C@H](CCCCN)NC(=O)[C@H](CCCCN)NC1=O [compound 68] (H-GIFSKLACKKIKNLCISGLKG-NH2; linker 8-15 via Biphenyl(4,4'-CH2)2; N-terminus assumed) | 8 µg/mL (≈ 3.33 µM) |

Same assay, conditions: 48 hours of incubation, CellTiter-Glo; read-out: Inhibitory Concentration at 50% Cytotoxicity (IC50) Human Liver Cells (HepG2)

| SMILES | IC50 |
| --- | --- |
| CC[C@H](C)[C@H](NC(=O)CN)C(=O)N[C@@H](Cc1ccccc1)C(=O)N[C@@H](CO)C(=O)N[C@H]1CSCc2ccc(nc2)-c2ccc(cn2)CSC[C@@H](C(=O)N[C@@H](CC(N)=O)C(=O)N[C@@H](CC(C)C)C(=O)N[C@@H](CC(C)C)C(=O)N[C@H](C(=O)N[C@@H](CO)C(=O)NCC(=O)N[C@@H](CC(C)C)C(=O)N[C@@H](CCCCN)C(=O)NCC(N)=O)[C@@H](C)CC)NC(=O)[C@H]([C@@H](C)CC)NC(=O)[C@H](CCCCN)NC(=O)[C@H](CCCCN)NC(=O)CNC(=O)[C@H](C)NC(=O)[C@H](CC(C)C)NC1=O [compound 60] (H-GIFSCLAGKKICNLLISGLKG-NH2; linker 5-12 via 2,2'Bipyridine(5,5'-diCH2)) | 29 µg/mL (≈ 12.5 µM) |
| CC[C@H](C)[C@H](NC(=O)CN)C(=O)N[C@@H](Cc1ccccc1)C(=O)N[C@@H](CO)C(=O)N[C@H]1CSCc2ccc3cc(ccc3c2)CSC[C@@H](C(=O)N[C@@H](CC(N)=O)C(=O)N[C@@H](CC(C)C)C(=O)N[C@@H](CC(C)C)C(=O)N[C@H](C(=O)N[C@@H](CO)C(=O)NCC(=O)N[C@@H](CC(C)C)C(=O)N[C@@H](CCCCN)C(=O)NCC(N)=O)[C@@H](C)CC)NC(=O)[C@H]([C@@H](C)CC)NC(=O)[C@H](CCCCN)NC(=O)[C@H](CCCCN)NC(=O)CNC(=O)[C@H](C)NC(=O)[C@H](CC(C)C)NC1=O [compound 62] (H-GIFSCLAGKKICNLLISGLKG-NH2; linker 5-12 via Naphthalene(2,6-diCH2)) | 81 µg/mL (≈ 35.4 µM) |
| CC[C@H](C)[C@H](NC(=O)CN)C(=O)N[C@@H](Cc1ccccc1)C(=O)N[C@@H](CO)C(=O)N[C@@H](CCCCN)C(=O)N[C@H]1CSCc2ccc(nc2)-c2ccc(cn2)CSC[C@@H](C(=O)N[C@@H](CC(C)C)C(=O)N[C@@H](CC(C)C)C(=O)N[C@H](C(=O)N[C@@H](CO)C(=O)NCC(=O)N[C@@H](CC(C)C)C(=O)N[C@@H](CCCCN)C(=O)NCC(N)=O)[C@@H](C)CC)NC(=O)[C@H](CCCCN)NC(=O)[C@H]([C@@H](C)CC)NC(=O)[C@H](CCCCN)NC(=O)[C@H](CCCCN)NC(=O)CNC(=O)[C@H](C)NC1=O [compound 63] (H-GIFSKCAGKKIKCLLISGLKG-NH2; linker 6-13 via 2,2'Bipyridine(5,5'-diCH2)) | 44 µg/mL (≈ 18.8 µM) |
